# Assay results: patent US6555541B1, “Substituted phenyl compounds with immunosuppressing activity and pharmaceutical compositions” (Astrazeneca UK Limited, priority 2000, dated 2003)
# Structures can show the parent of a compound that is named as a salt.
row,Compound,melting point
1,"Cc1ccc(CN2CCNCC2)cc1NC(=S)CNc1ccc(F)c(F)c1 [Example 2, 2-(3,4-Difluoro-phenylamino)-N-(2-methyl-5-piperazin-1-ylmethyl-phenyl)-thioacetamide]",72 to 82 °C (dec.)
2,"Cc1c(Cn2ccnc2)cccc1NC(=O)CNc1ccc(F)c(F)c1 [Example 17, 2-(3,4-Difluorophenylamino)-N-(3-imidazol-1-ylmethyl-2-methylphenyl)acetamide]",160 °C (dec.)
3,"Cc1c(CN(C)C)cccc1NC(=O)CNc1ccc(F)c(F)c1 [Example 18, 2-(3,4-Difluorophenylamino)-N-(3-dimethylaminomethyl-2-methylphenyl)acetamide]",144 °C (dec.)
4,"Cc1ccc(CN2CCNCC2)cc1NC(=O)CNc1ccc(F)c(F)c1 (as salt: hydrochloride) [Example 1, 2-(3,4-Difluorophenylano)-N-(2-methyl-5-piperazin-1-ylmethyl-phenyl)-acetamide, trihydrochloride]",232 to 248 °C (dec.)

# The remaining lines, values ahead:
row,melting point,Compound
1,240 °C (dec.),O=C(CNc1ccc(F)c(F)c1)Nc1cc(N2CCNCC2)ccc1Cl (as salt: hydrochloride)
2,> 230 °C,"Cc1cc(N2CCNCC2)ccc1NC(=O)CNc1ccc(F)c(F)c1 (as salt: hydrochloride) [Example 10, 2-(3,4-Difluoro-phenylamino)-N-(2-methyl-5-piperazin-1-yl-phenyl)-acetaniide, trihydrochloride]"
